Results taken from patent US20150224089A1, “COMBINATIONS OF IKKi/TBK1 INHIBITORS WITH BETA ADRENERGIC AGONISTS OR SYMPATHETIC NERVOUS SYSTEM ACTIVATORS” (THE REGENTS OF THE UNIVERSITY OF MICHIGAN, priority 2014, published 2015).

How the values were obtained:
3T3-L1 adipocytes [1] = test: Ucp1 gene expression in 3T3-L1 adipocytes; assay type: cell-based; settings: long-term treatment with TNFα
Experimental: (§1) (A) Fold increase in Ucp1 expression in 3T3-L1 adipocytes expressing empty vector, Flag-IKKε, or Flag-IKKε K38A following treatment with or without 10 μM ISO (black bars) or 10 μM CL-316,243 (CL, gray bars) for 4 hr. (B) Glycerol release from 3T3-L1 adipocytes expressing empty vector (white bars), Flag-IKKε (black bars), or Flag-IKKε K38A (gray bars) treated with or without 10 μM ISO or 10 μM CL. (C) Immunoblots of whole cell lysates from FIG. 1B. Results were replicated in triplicate. D.E. stands for dark exposure and L.E. stands for light exposure. (D) Immunoblots of whole cell lysates from 3T3-L1 adipocytes expressing empty vector or Flag-IKKε treated with or without 50 μM FSK for 15 min. (E) cAMP levels from 3T3-L1 adipocytes expressing empty vector, Flag-IKKε, or Flag-IKKε K38A treated with or without 10 μM ISO or 50 μM FSK for 15 min.
Sympathetic activation of adipose tissue is involved in maintaining energy balance by stimulating lipolysis and fat oxidation (Coppack et al., 1994; Langin, 2006; Festuccia et al., 2011; herein incorporated by reference in their entireties). Activation of β-adrenergic signaling by either β-adrenergic agonists or cold exposure in white and brown adipose tissue initiates a cascade of events through cyclic AMP (cAMP), culminating in the transcriptional upregulation of Ucp1, which results in increased proton leak and energy expenditure (Himms-Hagen et al., 2000; Cao et al., 2004; Yehuda-Shnaidman et al., 2010; herein incorporated by reference in their entireties). […] This effect was further analyzed by overexpressing IKKε in 3T3-L1 adipocytes and examining Ucp1 gene expression after treatment with the non-selective β-adrenergic agonist, isoproterenol (ISO), or the β3-adrenergic agonist, CL-316,243. Fold difference in Ucp1 gene expression was calculated by normalization of relative Ucp1 mRNA levels in treated relative to control samples. […] The induction of Ucp1 gene expression in response to ISO or CL-316,243 was blunted when WT IKKε was overexpressed in these cells. […]

3T3-L1 adipocytes [2] = test: Glycerol release (lipolysis) from 3T3-L1 adipocytes; assay type: cell-based; settings: TNFα for 24 hr, different concentrations; 10 μM ISO or 50 μM FSK
Experimental: as §1
(A) Glycerol release from 3T3-L1 adipocytes treated with or without different concentrations of TNFα as indicated for 24 hr followed by treatment with or without 10 μM ISO or 50 μM FSK. (B) cAMP levels from 3T3-L1 adipocytes treated with or without 100 ng/ml TNFα for 24 hr followed by treatment with or without 10 μM ISO or 50 μM FSK in the presence or absence of pretreatment of 50 μM Amlexanox (Am). (C) cAMP levels from 3T3-L1 adipocytes treated with or without 100 ng/ml TNFα for 24 hr followed by treatment with or without 50 μM FSK in the presence or absence of pretreatment of 1 μM CAY10576 (CAY). (D) Immunoblots of whole cell lysates from 3T3-L1 adipocytes treated with or without different concentrations of TNFα as same as FIG. 2A for 24 hr followed by treatment with or without 10 μM ISO or 50 μM FSK. Results were replicated in multiple experiments. ‘[’ indicates total HSL. ‘n.s.’ represents non-specific band. Arrow indicates CGI-58. (E) Immunoblots of whole cell lysates from 3T3-L1 adipocytes treated with or without 50 ng/ml TNFα or 100 μg/ml poly (I:C) for 24 hr followed by treatment with or without 10 μM ISO for 15 min in the presence or absence of pretreatment with increasing concentrations (0, 10, 50, and 200 μM) of amlexanox for 30 min.
The obesity-dependent increase was modeled in the noncanonical IKKs by overexpressing IKKε in 3T3-L1 adipocytes, followed by assay of glycerol release in response to ISO or CL-316,243. […] Overexpression of TBK1 reduced phosphorylation of HSL in response to isoproterenol or the adenylyl cyclase activator, forskolin (FIG. 1). Identical results were obtained when IKKε was overexpressed in 3T3-L1 adipocytes stimulated with forskolin (FIG. 1D), as detected by western blotting with an anti-phospho-PKA substrate motif antibody. […]

[3] = system: epididymal adipose tissue; test: cAMP levels in epididymal WAT after CL-316,243 injection in HFD-fed mice; assay type: in vivo; settings: HFD mice pretreated with amlexanox 4 days; 20 min after CL-316,243 IP injection
Experimental: (§2) (A) Fold increase in serum FFA (left panel) and glycerol (right panel) levels 15 min after CL-316,243 injection in ND- or HFD-fed mice treated with amlexanox or vehicle control for 4 days. (B) Glycerol release from ex vivo epididymal (left panel) and inguinal (right panel) WATs after 1 hr pretreatment with amlexanox or vehicle. CL-316,243 treatment was started at time zero. (C) Immunoblots in inguinal WAT lysates from FIG. 5B after 60 min of CL-316,243 treatment. (D) cAMP levels in epididymal WAT 20 min after CL-316,243 (CL) or saline control injection in HFD-fed mice treated with amlexanox or vehicle control for 4 days. (E) Immunoblots in epididymal WAT 5 min after CL-316,243 or saline control injection in HFD-fed mice treated with amlexanox or vehicle control for 4 days. (F) Relative oxygen comsumption of mice in each treatment group.
(§3) To examine whether inhibition of TBK1 and IKKε with amlexanox reverses resistance to catecholamineinduced lipolysis in vivo by increasing stimulation of cAMP production, cAMP levels we measured in epididymal adipose tissue from mice on HFD after CL-316,243 IP injection. Levels of cAMP were increased after CL-316,243 IP injection in mice on HFD pretreated with amlexanox (FIG. 5D).

epididymal WAT = test: Immunoblots (HSL phosphorylation) in epididymal WAT after CL-316,243 injection in HFD-fed mice; assay type: in vivo; settings: HFD-fed mice pretreated with amlexanox 4 days; 5 min after CL-316,243 IP injection
Experimental: as §2, §3

Compound	induction of Ucp1 gene expression in response to β-adrenergic stimuli (3T3-L1 adipocytes [1])	glycerol release in response to isoproterenol and forskolin (3T3-L1 adipocytes [2])	cAMP levels in epididymal adipose tissue [3]	HSL phosphorylation in epididymal WAT (epididymal WAT)
TNFα	repressed	decreased glycerol release	–	–
CC(C)c1ccc2oc3nc(N)c(C(=O)O)cc3c(=O)c2c1 [amlexanox, 2-amino-7-isopropyl-1-azaxanthone-3-carboxylic acid; 2-amino-7-isopropyl-5-oxo-5H-chromeno[2,3-b]pyridine-3-carboxylic acid]	–	–	increased	increased
